Here are results for one compound from BindingDB's records for doi:10.1021/acs.jmedchem.6b00596 (University of Connecticut Health Center, 2016).

One may read the IC50 as the point on the concentration scale where inhibition reaches its midpoint. High values mean weaker potency, low ones greater potency.

The assay has as its target Ubiquitin carboxyl-terminal hydrolase 1/WD repeat-containing protein 48 (Homo sapiens, UniProt O94782+Q8TAF3). Put plainly: Inhibition of human USP1/UAF1 complex using Ub-Rho as substrate by qHTS assay. A general note: qHTS replaces the single test concentration by a dilution series.

Sequence of Ubiquitin carboxyl-terminal hydrolase 1/WD repeat-containing protein 48 (O94782 whole entry, looked up): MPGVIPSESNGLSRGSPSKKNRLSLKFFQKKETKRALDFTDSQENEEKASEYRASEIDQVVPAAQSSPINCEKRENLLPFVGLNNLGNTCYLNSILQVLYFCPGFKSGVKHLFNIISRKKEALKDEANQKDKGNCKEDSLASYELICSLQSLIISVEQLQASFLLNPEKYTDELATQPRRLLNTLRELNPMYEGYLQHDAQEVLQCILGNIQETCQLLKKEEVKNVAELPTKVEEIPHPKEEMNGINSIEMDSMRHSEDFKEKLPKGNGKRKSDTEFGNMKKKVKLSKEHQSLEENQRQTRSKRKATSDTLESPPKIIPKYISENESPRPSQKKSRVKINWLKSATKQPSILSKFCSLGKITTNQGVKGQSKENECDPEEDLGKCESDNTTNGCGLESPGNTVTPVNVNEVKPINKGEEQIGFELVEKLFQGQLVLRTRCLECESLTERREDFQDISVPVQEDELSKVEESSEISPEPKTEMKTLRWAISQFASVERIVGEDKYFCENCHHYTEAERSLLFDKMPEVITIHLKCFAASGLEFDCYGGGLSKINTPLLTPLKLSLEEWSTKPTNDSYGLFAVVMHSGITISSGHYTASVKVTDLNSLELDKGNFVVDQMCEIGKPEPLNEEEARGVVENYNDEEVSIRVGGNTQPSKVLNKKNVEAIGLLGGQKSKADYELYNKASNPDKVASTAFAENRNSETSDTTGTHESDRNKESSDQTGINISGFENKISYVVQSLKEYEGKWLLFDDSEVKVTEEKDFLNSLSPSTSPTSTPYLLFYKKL
Sequence of Ubiquitin carboxyl-terminal hydrolase 1/WD repeat-containing protein 48 (Q8TAF3 whole entry, looked up): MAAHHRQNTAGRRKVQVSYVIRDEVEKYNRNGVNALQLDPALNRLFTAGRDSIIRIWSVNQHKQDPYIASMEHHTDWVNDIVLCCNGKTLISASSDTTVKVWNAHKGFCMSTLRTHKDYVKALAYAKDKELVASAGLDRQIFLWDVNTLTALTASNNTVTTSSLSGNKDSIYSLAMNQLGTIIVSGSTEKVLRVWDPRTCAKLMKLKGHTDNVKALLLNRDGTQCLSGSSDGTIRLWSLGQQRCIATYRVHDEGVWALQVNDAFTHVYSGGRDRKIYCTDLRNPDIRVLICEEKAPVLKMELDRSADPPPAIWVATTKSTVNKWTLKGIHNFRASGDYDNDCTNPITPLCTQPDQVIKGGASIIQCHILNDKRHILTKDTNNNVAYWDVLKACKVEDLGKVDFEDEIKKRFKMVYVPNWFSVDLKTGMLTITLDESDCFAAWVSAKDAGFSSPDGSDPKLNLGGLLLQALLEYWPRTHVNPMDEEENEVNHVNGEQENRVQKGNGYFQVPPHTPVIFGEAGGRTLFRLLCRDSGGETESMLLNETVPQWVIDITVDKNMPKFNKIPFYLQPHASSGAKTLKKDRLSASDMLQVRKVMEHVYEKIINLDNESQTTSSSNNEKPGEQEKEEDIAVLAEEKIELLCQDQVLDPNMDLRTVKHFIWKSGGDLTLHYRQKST

`OCCN1CCN(CC/C=C2/c3ccccc3Sc3ccc(C(F)(F)F)cc32)CC1` [Fluphenthixol] yielded an IC50 of 7 µM.
